Data on 17 compounds can be found in US20260297080A1, “BICYCLIC COMPOUNDS AS CDK INHIBITORS” (BeOne Medicines I GmbH, priority 2022, published 2026).

The target in assay [1] is CDK1/Cyclin B1 (Homo sapiens, UniProt P06493). The assay is described as follows: CDK1/Cyclin B1 Biochemical Assay (TR-FRET), 0.015 mM ATP. The settings on record: 0.15 μM Rb (Ser780)-biotin substrate, pH7.0, 60 min preincubation, 120 min reaction, room temperature. The essentials:
(§1)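 Kinase preincubated with compound (0–10 μM) 60 min at room temperature, then reaction started with ATP and 0.15 μM Rb (Ser780)-biotin peptide and run 120 min in HEPES pH 7.0 buffer with 50 mM MgCl2. Phospho-Rb detected by Eu-cryptate anti-pRb(Ser780)/streptavidin-XL665 TR-FRET (665/620 nm ratio); IC50 from four-parameter logistic fit.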
On the technique in general: Time-resolved FRET reads energy transfer from a long-lived donor to a nearby acceptor.

The target of assay [2] is CDK2/Cyclin E1 (Homo sapiens, UniProt P24941). In words: CDK2/Cyclin E1 Biochemical Assay (TR-FRET), 0.060 mM ATP. The settings on record: 0.15 μM Rb (Ser780)-biotin substrate, pH7.0, 60 min preincubation, 120 min reaction, room temperature. The method in brief: as §1

Chain of CDK1/Cyclin B1 (P06493 whole entry): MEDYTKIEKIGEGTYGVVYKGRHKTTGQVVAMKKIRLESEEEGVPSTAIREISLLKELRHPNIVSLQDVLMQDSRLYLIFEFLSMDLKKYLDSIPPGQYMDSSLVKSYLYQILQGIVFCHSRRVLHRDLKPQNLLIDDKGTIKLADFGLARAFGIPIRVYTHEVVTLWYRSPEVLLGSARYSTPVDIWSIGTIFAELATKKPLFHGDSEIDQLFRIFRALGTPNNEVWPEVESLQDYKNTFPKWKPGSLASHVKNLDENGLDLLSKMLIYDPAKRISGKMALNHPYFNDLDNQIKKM
Chain of CDK1/Cyclin B1 (P14635 whole entry partner): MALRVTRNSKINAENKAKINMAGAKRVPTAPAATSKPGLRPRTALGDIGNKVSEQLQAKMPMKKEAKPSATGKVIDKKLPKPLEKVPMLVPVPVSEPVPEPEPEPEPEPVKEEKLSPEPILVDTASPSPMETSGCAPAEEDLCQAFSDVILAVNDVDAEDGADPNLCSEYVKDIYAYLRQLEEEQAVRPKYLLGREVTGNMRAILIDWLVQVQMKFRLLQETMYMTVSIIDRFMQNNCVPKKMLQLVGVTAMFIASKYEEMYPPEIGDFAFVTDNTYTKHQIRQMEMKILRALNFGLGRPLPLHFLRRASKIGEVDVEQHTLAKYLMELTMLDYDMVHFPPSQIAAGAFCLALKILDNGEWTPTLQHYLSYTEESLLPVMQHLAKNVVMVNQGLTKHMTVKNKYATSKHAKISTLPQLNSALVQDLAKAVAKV

`CC1(NC(=O)O[C@H]2CC[C@@H](c3cc(Nc4ccc5c(c4F)CS(=O)(=O)N5)n[nH]3)C2)COC1` (relative stereo) [Example 374, cis-3-(3-((4-fluoro-2,2-dioxido-1,3-dihydrobenzo[c]isothiazol-5-yl)amino)-1H-pyrazol-5-yl)cyclopentyl(3-methyloxetan-3-yl)carbamate]: the IC50 in assay [1] came to 118 nM; in assay [2] it was 5.7 nM.
With `CC(C)NC(=O)O[C@H]1CC[C@@H](c2cc(Nc3ccc4c(c3)CS(=O)(=O)N4CCO)n[nH]2)C1` (single isomer, unassigned) [Example 219a, cis-3-(3-((1-(2-hydroxyethyl)-2,2-dioxido-1,3-dihydrobenzo[c]isothiazol-5-yl)amino)-1H-pyrazol-5-yl)cyclopentyl isopropylcarbamate], the IC50 came to 46 nM in assay [1] and 5.4 nM in assay [2].
Regarding `Cc1c(Nc2cc([C@@H]3CC[C@H](OC(=O)NC(C)C)C3)[nH]n2)ccc2c1CS(=O)(=O)N2` (relative stereo) [Example 240, cis-3-(3-((4-methyl-2,2-dioxido-1,3-dihydrobenzo[c]isothiazol-5-yl)amino)-1H-pyrazol-5-yl)cyclopentyl isopropylcarbamate], the IC50 in assay [1] came out at 28 nM; in assay [2], 3 nM.
For `CC(C)NC(=O)O[C@H]1CC[C@@H](c2cc(Nc3ccc4c(c3)NS(=O)(=O)C4)n[nH]2)C1` (stereo in doubt) [Example 303b, cis-3-(3-((2,2-dioxido-1,3-dihydrobenzo[c]isothiazol-6-yl)amino)-1H-pyrazol-5-yl)cyclopentyl isopropylcarbamate], in that order: 28 nM and 2 nM.
For the compound `CN1Cc2c(ccc(Nc3cc([C@@H]4CC[C@H](OC(=O)NC5(C)COC5)C4)[nH]n3)c2F)S1(=O)=O` (single isomer, unassigned) [Example 352b, cis-3-(3-((4-fluoro-2-methyl-1,1-dioxido-2,3-dihydrobenzo[d]isothiazol-5-yl)amino)-1H-pyrazol-5-yl)cyclopentyl(3-methyloxetan-3-yl)carbamate], the IC50 in assay [1] is 651 nM; in assay [2], 7 nM.
As to `COc1c(Nc2cc([C@@H]3CC[C@H](OC(=O)NC(C)C)C3)[nH]n2)ccc2c1C(C)(C)NS2(=O)=O` (relative stereo) [Example 24, cis-3-(3-((4-methoxy-3,3-dimethyl-1,1-dioxido-2,3-dihydrobenzo[d]isothiazol-5-yl)amino)-1H-pyrazol-5-yl)cyclopentyl isopropylcarbamate], the IC50 is 9960 nM in assay [1] and 887 nM in assay [2].
For `CC1(NC(=O)O[C@H]2CC[C@@H](c3cc(Nc4ccc5c(c4F)C(C)(C)NS5(=O)=O)n[nH]3)C2)CC1` (relative stereo) [Example 56, cis-3-(3-((4-fluoro-3,3-dimethyl-1,1-dioxido-2,3-dihydrobenzo[d]isothiazol-5-yl)amino)-1H-pyrazol-5-yl)cyclopentyl(1-methylcyclopropyl)carbamate], in that order: 472 nM and 25 nM.
On to `COCC(C)NC(=O)O[C@H]1CC[C@@H](c2cc(Nc3ccc4c(c3F)CS(=O)(=O)N4C)n[nH]2)C1` (relative stereo) [Example 331, cis-3-(3-((4-fluoro-1-methyl-2,2-dioxido-1,3-dihydrobenzo[c]isothiazol-5-yl)amino)-1H-pyrazol-5-yl)cyclopentyl(1-methoxypropan-2-yl)carbamate], for which the figures for the IC50 in assay [1] and in assay [2] were 229 nM and 3.9 nM, respectively.
For the compound `CC[C@H](C)NC(=O)O[C@H]1CC[C@@H](c2cc(Nc3cc4c(cc3F)S(=O)(=O)NC4)n[nH]2)C1` (relative stereo) [Example 43, cis-3-(3-((6-fluoro-1,1-dioxido-2,3-dihydrobenzo[d]isothiazol-5-yl)amino)-1H-pyrazol-5-yl)cyclopentyl((S)-sec-butyl)carbamate], the IC50 turned out to be 130 nM in assay [1] and 1.1 nM in assay [2].
Turning to `CN1c2ccc(Nc3cc([C@@H]4CC[C@H](OC(=O)NC5(CO)CC5)C4)[nH]n3)cc2CS1(=O)=O` (relative stereo) [Example 342, cis-3-(3-((1-methyl-2,2-dioxido-1,3-dihydrobenzo[c]isothiazol-5-yl)amino)-1H-pyrazol-5-yl)cyclopentyl(1-(hydroxymethyl)cyclopropyl)carbamate], the IC50 came to 61 nM in assay [1] and 4.9 nM in assay [2].
As for `CCCNC(=O)O[C@H]1CC[C@@H](c2cc(Nc3ccc4c(c3F)CS(=O)(=O)N4CCO)n[nH]2)C1` (single isomer, unassigned) [Example 272b, cis-3-(3-((4-fluoro-1-(2-hydroxyethyl)-2,2-dioxido-1,3-dihydrobenzo[c]isothiazol-5-yl)amino)-1H-pyrazol-5-yl)cyclopentyl propylcarbamate], the IC50 came to 59 nM in assay [1] and 3 nM in assay [2].
Take `CC(C)NC(=O)O[C@H]1CC[C@@H](c2cc(Nc3ccc4c(c3F)CN(C3CC3)S4(=O)=O)n[nH]2)C1` (single isomer, unassigned) [Example 116b, cis-3-(3-((2-cyclopropyl-4-fluoro-1,1-dioxido-2,3-dihydrobenzo[d]isothiazol-5-yl)amino)-1H-pyrazol-5-yl)cyclopentyl isopropylcarbamate]: the 50% inhibitory concentration (IC50) in assay [1] came out at 189 nM; in assay [2], 5.4 nM.
Consider `CC(C)NC(=O)O[C@H]1CC[C@@H](c2cc(Nc3ccc4c(c3F)CS(=O)(=O)N4C3CC3)n[nH]2)C1` (single isomer, unassigned) [Example 275a, cis-3-(3-((1-cyclopropyl-4-fluoro-2,2-dioxido-1,3-dihydrobenzo[c]isothiazol-5-yl)amino)-1H-pyrazol-5-yl)cyclopentyl isopropylcarbamate], for which the IC50 in assay [1] was 398 nM; in assay [2] it was 8.4 nM.
For `C[C@@H](CO)NC(=O)O[C@H]1CC[C@@H](c2cc(Nc3ccc4c(c3F)CS(=O)(=O)N4C)n[nH]2)C1` (relative stereo) [Example 348, cis-3-(3-((4-fluoro-1-methyl-2,2-dioxido-1,3-dihydrobenzo[c]isothiazol-5-yl)amino)-1H-pyrazol-5-yl)cyclopentyl((S)-1-hydroxypropan-2-yl)carbamate], in that order: 635 nM and 22 nM.
With `CCCNC(=O)O[C@@H]1CC[C@H](c2cc(Nc3ccc4c(c3F)CNS4(=O)=O)n[nH]2)C1` (single isomer, unassigned) [Example 138a], the IC50 came to 237 nM in assay [1] and 2.6 nM in assay [2].
For `CC(C)NC(=O)O[C@H]1CC[C@@H](c2cc(Nc3ccc4c(c3F)S(=O)(=O)CC4)n[nH]2)C1` (relative stereo) [Example 314, cis-3-(3-((7-fluoro-1,1-dioxido-2,3-dihydrobenzo[b]thiophen-6-yl)amino)-1H-pyrazol-5-yl)cyclopentyl isopropylcarbamate], in that order: 44 nM and 1.6 nM.
On to `CC(C)NC(=O)O[C@H]1CC[C@@H](c2cc(Nc3cc4c(cc3F)S(=O)(=O)NC4(C)C)n[nH]2)C1` (relative stereo) [Example 14, cis-3-(3-((6-fluoro-3,3-dimethyl-1,1-dioxido-2,3-dihydrobenzo[d]isothiazol-5-yl)amino)-1H-pyrazol-5-yl)cyclopentyl isopropylcarbamate], for which the IC50 in assay [1] was found to be 1090 nM; in assay [2], 30 nM.

By IC50 is commonly meant the midpoint of a concentration-inhibition curve. Lower therefore signals inhibition by little substance.
